Legend:
[1] = Inhibition of recombinant VIM-1 (unknown origin) expressed in Escherichia coli (DE3) cells using FC5 as substrate by microplate reader assay
[2] = Inhibition of recombinant his tagged IMP1 (unknown origin) expressed in Escherichia coli (DE3) cells using FC5 as substrate by microplate reader assay
[3] = Inhibition of recombinant NDM1 (unknown origin) expressed in Escherichia coli (DE3) cells using FC5 as substrate by microplate reader assay
[4] = Inhibition of recombinant his tagged VIM-2 (unknown origin) expressed in Escherichia coli (DE3) cells using FC5 as substrate by microplate reader assay
[5] = Inhibition of recombinant VIM-5 (unknown origin) expressed in Escherichia coli (DE3) cells using FC5 as substrate by microplate reader assay
Escherichia coli [6] = experiment: Antibacterial activity against Escherichia coli BAA2452 expressing blaNDM-1 clinical isolates assessed as fold potentiation incubated for 16 to 18 hrs by broth microdilution method; format: functional; details: time 16-18 hrs; also: test concentration or dose not given here
Enterobacterales [7] = experiment: Antibacterial activity against Carbapenem-Resistant Enterobacterales 19 expressing blaNDM-1 clinical isolates assessed as fold potentiation incubated for 16 to 18 hrs by broth microdilution method; format: functional; details: time 16-18 hrs; also: test concentration or dose not given here
Enterobacterales [8] = experiment: Antibacterial activity against Carbapenem-Resistant Enterobacterales 19 expressing blaNDM-1 clinical isolates assessed as meropenem MIC incubated for 16 to 18 hrs by broth microdilution method; format: functional; details: time 16-18 hrs; also: test concentration or dose not given here
Escherichia coli [9] = experiment: Antibacterial activity against Escherichia coli C1580 expressing blaIMP-1 clinical isolates assessed as meropenem MIC incubated for 16 to 18 hrs by broth microdilution method; format: functional; details: time 16-18 hrs; also: test concentration or dose not given here
Escherichia coli [10] = experiment: Antibacterial activity against Escherichia coli C1580 expressing blaIMP-1 clinical isolates assessed as fold potentiation incubated for 16 to 18 hrs by broth microdilution method; format: functional; details: time 16-18 hrs; also: test concentration or dose not given here
Klebsiella pneumoniae [11] = experiment: Antibacterial activity against Klebsiella pneumoniae BAA2470 expressing blaNDM-1 clinical isolates assessed as meropenem MIC incubated for 16 to 18 hrs by broth microdilution method; format: functional; details: time 16-18 hrs; also: test concentration or dose not given here
Klebsiella pneumoniae [12] = experiment: Antibacterial activity against Klebsiella pneumoniae BAA2470 expressing blaNDM-1 clinical isolates assessed as fold potentiation incubated for 16 to 18 hrs by broth microdilution method; format: functional; details: time 16-18 hrs; also: test concentration or dose not given here
Escherichia coli [13] = experiment: Antibacterial activity against Escherichia coli BAA2452 expressing blaNDM-1 clinical isolates assessed as meropenem MIC incubated for 16 to 18 hrs by broth microdilution method; format: functional; details: time 16-18 hrs; also: test concentration or dose not given here
Escherichia coli [14] = experiment: Antibacterial activity against Escherichia coli C1541 expressing blaVIM-2 clinical isolates assessed as meropenem MIC incubated for 16 to 18 hrs by broth microdilution method; format: functional; details: time 16-18 hrs; also: test concentration or dose not given here
Escherichia coli [15] = experiment: Antibacterial activity against Escherichia coli C1541 expressing blaVIM-2 clinical isolates assessed as fold potentiation incubated for 16 to 18 hrs by broth microdilution method; format: functional; details: time 16-18 hrs; also: test concentration or dose not given here

Row | SMILES | IC50 [1] [µM] | IC50 [2] [µM] | IC50 [3] [µM] | IC50 [4] [µM] | IC50 [5] [µM] | fold change (FC) (Escherichia coli [6]) | fold change (FC) (Enterobacterales [7]) | MIC (Enterobacterales [8]) [µg/mL] | MIC (Escherichia coli [9]) [µg/mL] | fold change (FC) (Escherichia coli [10]) | MIC (Klebsiella pneumoniae [11]) [µg/mL] | fold change (FC) (Klebsiella pneumoniae [12]) | MIC (Escherichia coli [13]) [µg/mL] | MIC (Escherichia coli [14]) [µg/mL] | fold change (FC) (Escherichia coli [15])
1 | NCC(=O)Nc1cccc(-c2cn(-c3cccc(CP(=O)(O)O)c3)nn2)c1 | 1.82 | 24.1 | 19.3 | 0.29 | 0.086 |  |  |  |  |  |  |  |  |  | 
2 | Cc1ccc(-c2ccc(C(c3cccc(-n4cc(-c5cccc(N)c5)nn4)c3)P(=O)(O)O)cc2)cc1 (centres undefined) | 0.66 | 0.43 | 0.59 | 0.00066 | 0.002 | 8 | 8 | 8 | 2 | 16 | 64 | >2 | 16 |  | 
3 | Nc1cccc(-c2cn(-c3cccc(CP(=O)(O)O)c3)nn2)c1 | 2.21 | 1.96 | 7.27 | 0.092 | 0.019 | 4 | 4 | 16 | 2 | 16 | 128 | >1 | 32 | 4 | 4
4 | Cc1ccc(-c2cn(-c3cccc(CP(=O)(O)O)c3)nn2)cc1 | 5.48 | 4.4 | 24.6 | 0.77 | 0.045 |  |  |  |  |  |  |  |  |  | 
5 | O=P(O)(O)Cc1ccc(-n2cc(-c3cccc(Cl)c3)nn2)cc1 | 8.99 | > 100 | > 100 | 2.44 | 2.03 |  |  |  |  |  |  |  |  |  | 
6 | O=P(O)(O)Cc1cccc(-n2cc(-c3ccc(Br)cc3)nn2)c1 | 11.4 | 3.28 | 11.2 | 0.076 | 0.05 | 4 | 4 | 16 | 2 | 16 | 128 | >1 | 32 | 4 | 4
7 | O=C(NCc1cccc(-c2cn(-c3cccc(CP(=O)(O)O)c3)nn2)c1)C(F)(F)F | 12.3 | 6.54 | 58.4 | 1.98 | 0.11 |  |  |  |  |  |  |  |  |  | 
8 | Nc1ccc(-c2cn(-c3cccc(CP(=O)(O)O)c3)nn2)cc1 | 5.84 | 3.24 | 15.1 | 0.17 | 0.28 |  |  |  |  |  |  |  |  |  | 
9 | CCCCc1cn(-c2cccc(CP(=O)(O)O)c2)nn1 | 16.5 | 12.3 | > 100 | 2.23 | 1.73 |  |  |  |  |  |  |  |  |  | 
10 | O=P(O)(O)Cc1cccc(-n2cc(CNc3ccccc3)nn2)c1 | 3.77 | 0.78 | 2.84 | 0.84 | 0.64 |  |  |  |  |  |  |  |  |  | 
11 | O=P(O)(O)Cc1cccc(-n2cc(-c3ccc(F)cc3)nn2)c1 | 9.64 | 2.17 | 24.3 | 0.29 | 0.063 |  |  |  |  |  |  |  |  |  | 
12 | COc1ccc(-c2cn(-c3cccc(CP(=O)(O)O)c3)nn2)cc1 | 4.26 | 6.41 | 7.63 | 0.17 | 0.043 |  |  |  |  |  |  |  |  |  | 
13 | Nc1ccccc1-c1cn(-c2cccc(CP(=O)(O)O)c2)nn1 | 5.61 | 6.5 | 7.71 | 0.013 | 0.51 | 4 | 8 | 8 | 2 | 16 | 128 | >1 | 32 | 1 | 16
14 | COc1cccc(-c2cn(-c3cccc(CP(=O)(O)O)c3)nn2)c1 | 8.74 | 12.2 | 60 | 0.83 | 0.093 |  |  |  |  |  |  |  |  |  | 
15 | Nc1cccc(-c2cn(-c3cccc(C(c4ccc(F)cc4)P(=O)(O)O)c3)nn2)c1 (centres undefined) | 0.44 | 0.7 | 2 | 0.006 | 0.001 | 8 | 8 | 8 | 2 | 16 | 64 | >2 | 16 | 0.5 | 32
16 | O=[N+]([O-])c1ccc(Cn2cc(-c3cccc(B(O)O)c3)nn2)cc1 | > 100 | > 100 | 48 | 9.76 | 81.1 | 2 | 2 | 32 | 16 | 2 | > 128 |  | 64 | 64 | 

Row | SMILES | IC50 [1] [µM] | IC50 [2] [µM] | IC50 [3] [µM] | IC50 [4] [µM] | IC50 [5] [µM] | fold change (FC) (Escherichia coli [6]) | fold change (FC) (Enterobacterales [7]) | MIC (Enterobacterales [8]) [µg/mL] | MIC (Escherichia coli [9]) [µg/mL] | fold change (FC) (Escherichia coli [10]) | MIC (Klebsiella pneumoniae [11]) [µg/mL] | fold change (FC) (Klebsiella pneumoniae [12]) | MIC (Escherichia coli [13]) [µg/mL] | MIC (Escherichia coli [14]) [µg/mL] | fold change (FC) (Escherichia coli [15])
17 | O=P(O)(O)Cc1ccc(-n2cc(CNc3ccccc3)nn2)cc1 | 26.7 | > 100 | > 100 | 13.3 | 7.43 |  |  |  |  |  |  |  |  |  | 
18 | Nc1cccc(-c2cn(-c3cccc(C(c4ccc(Cl)cc4)P(=O)(O)O)c3)nn2)c1 (centres undefined) | 0.34 | 0.54 | 0.67 | 0.001 | 0.00043 | 8 | 8 | 8 | 2 | 16 | 64 | >2 | 16 | 1 | 16
19 | Cc1cccc(-c2cn(-c3ccc(CP(=O)(O)O)cc3)nn2)c1 | 11.8 | > 100 | 65.5 | 2.03 | 1.16 |  |  |  |  |  |  |  |  |  | 
20 | O=P(O)(O)Cc1cccc(-n2cc(-c3ccc(Cl)cc3)nn2)c1 | 7.12 | 8.34 | 40.2 | 0.44 | 0.18 |  |  |  |  |  |  |  |  |  | 
21 | CC(C)(C)c1cn(-c2cccc(CP(=O)(O)O)c2)nn1 | 24.6 | 9.5 | 27.1 | 4.44 | 0.52 |  |  |  |  |  |  |  |  |  | 
22 | O=P(O)(O)Cc1cccc(-n2cc(-c3ccccc3Br)nn2)c1 | 7.16 | 1.9 | 5.2 | 0.72 | 0.095 | 4 | 4 | 16 | 2 | 16 | 128 | >1 | 32 | 4 | 4
23 | O=P(O)(O)Cc1cccc(-n2cc(-c3cccc(Br)c3)nn2)c1 | 4.97 | 11.3 | 24.2 | 0.66 | 0.016 |  |  |  |  |  |  |  |  |  | 
24 | NCc1cccc(-c2cn(-c3cccc(CP(=O)(O)O)c3)nn2)c1 | 7.75 | 37.1 | 42.5 | 2.56 | 0.28 |  |  |  |  |  |  |  |  |  | 
25 | Nc1cccc(-c2cn(-c3cccc(C(c4ccc(Br)cc4)P(=O)(O)O)c3)nn2)c1 (centres undefined) | 0.2 | 0.44 | 0.66 | 0.007 | 0.003 | 8 | 8 | 8 | 4 | 8 | 64 | >2 | 16 | 1 | 16
26 | NCCOc1ccc(-c2cn(-c3cccc(C(=O)O)c3C(=O)O)nn2)cc1 | > 100 | 1.83 | > 100 | 3.69 | > 100 | 2 | 1 | 64 | 0.25 | 128 | > 128 |  | 64 | 32 | 
27 | O=C(NCc1cn(-c2ccc(CP(=O)(O)O)cc2)nn1)C(F)(F)F | 27.9 | > 100 | > 100 | 27.2 | 31.8 |  |  |  |  |  |  |  |  |  | 
28 | O=C(NCc1cn(-c2cccc(CP(=O)(O)O)c2)nn1)C(F)(F)F | 33.7 | 54.6 | 73.7 | 2.22 | 0.028 |  |  |  |  |  |  |  |  |  | 
29 | Nc1ccccc1-c1cn(-c2ccc(CP(=O)(O)O)cc2)nn1 | 22.1 | > 100 | 16.6 | 2.48 | 2.28 |  |  |  |  |  |  |  |  |  | 
30 | O=P(O)(O)Cc1cccc(-n2cc(-c3cccc(Cl)c3)nn2)c1 | 6.85 | 7.17 | > 100 | 0.24 | 0.031 |  |  |  |  |  |  |  |  |  | 
31 | NCc1cn(-c2cccc(CP(=O)(O)O)c2)nn1 | 23.9 | > 100 | > 100 | 2.69 | 14.5 |  |  |  |  |  |  |  |  |  | 
32 | O=P(O)(O)Cc1cccc(-n2cc(-c3cccc(F)c3)nn2)c1 | 6.67 | 6.74 | 34.7 | 0.97 | 0.08 |  |  |  |  |  |  |  |  |  | 
